Test results: the supplement of paper PMC10331698
± gives the standard deviation of the averaged measurements.

Assays:
Octafluoroadipic acid = compound: O=C(O)C(F)(F)C(F)(F)C(F)(F)C(F)(F)C(=O)O [Octafluoroadipic acid] (in DMSO); experiment: level (log10 ratio to DMSO vehicle control); higher = higher biomarker level / cell amount than vehicle control
Protocol: (§1)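 BioMAP Diversity Plus panel of 12 human primary cell co-culture systems (3C, 4H, LPS, SAg, BT, BF4T, BE3C, CASM3C, HDF3CGF, KF3CT, MyoF, Mphg). Compounds were added 1 h before stimulation and left for 24 h (MyoF 48 h; BT 72 h for soluble read-outs or 6 d for IgG). Biomarkers were read by ELISA, cytotoxicity by SRB, PBMC viability and proliferation by Alamar Blue. Each well value was divided by the mean of 8 DMSO control wells on the same plate and log10 transformed; duplicate blinded samples were tested at 4 concentrations.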

[1] = compound: OCC(F)(F)C(F)(F)C(F)(F)C(F)(F)C(F)(F)C(F)(F)CO [1H,1H,8H,8H-Perfluorooctane-1,8-diol] (in DMSO); experiment: as above
Protocol: as §1

| Test System | level (log10) (Octafluoroadipic acid; 6700 nM) | level (log10) (Octafluoroadipic acid; 20000 nM) | level (log10) (Octafluoroadipic acid; 60000 nM) | level (log10) ([1]; 6700 nM) | level (log10) ([1]; 20000 nM) | level (log10) ([1]; 60000 nM) |
| --- | --- | --- | --- | --- | --- | --- |
| BF4T:SRB | -0.0145 ± 0.0064 | -0.011 ± 0.0071 | -0.0065 ± 0.0035 | -0.002 ± 0.0042 | -0.0005 ± 0.0035 | -0.007 ± 0.0071 |
| BF4T:tPA | -0.007 ± 0.0014 | -0.0065 ± 0.025 | 0.0035 ± 0.005 | -0.011 ± 0.014 | -0.024 ± 0.0057 | -0.025 ± 0.0085 |
| BF4T:uPA | -0.0115 ± 0.023 | -0.0175 ± 0.03 | -0.003 | -0.005 ± 0.0042 | -0.0035 ± 0.0092 | -0.0035 ± 0.012 |
| BT:B cell Proliferation | -0.014 ± 0.0028 | -0.023 ± 0.016 | 0.005 ± 0.031 | -0.029 ± 0.024 | -0.007 ± 0.038 | -0.0195 ± 0.052 |
| BT:PBMC Cytotoxicity | -0.0015 ± 0.029 | 0.001 ± 0.0014 | 0.0025 ± 0.019 | 0.0065 ± 0.0092 | -0.0145 ± 0.011 | -0.0595 ± 0.011 |
| BT:Secreted IgG | 0.0285 ± 0.033 | 0.028 ± 0.027 | 0.0435 ± 0.011 | -0.0265 ± 0.016 | -0.0095 ± 0.016 | -0.098 ± 0.0099 |
| BT:sIL-2 | -0.006 ± 0.15 | -0.012 ± 0.021 | -0.0495 ± 0.061 | 0.0065 ± 0.063 | 0.008 ± 0.027 | 0.0055 ± 0.04 |
| BT:sIL-6 | 0.013 ± 0.083 | 0.021 ± 0.016 | -0.102 ± 0.14 | -0.029 ± 0.045 | -0.078 ± 0.016 | -0.216 ± 0.054 |
| BT:sIL-17A | -0.0875 ± 0.044 | 0.0075 ± 0.064 | 0.128 ± 0.092 | -0.0535 ± 0.14 | -0.25 ± 0.073 | -0.393 ± 0.085 |
| BT:sIL-17F | -0.027 ± 0.0028 | -0.009 ± 0.078 | 0.0275 ± 0.076 | -0.0015 ± 0.03 | -0.158 ± 0.12 | -0.208 ± 0.0092 |
| BT:sTNF-alpha | 0.0535 ± 0.17 | 0.028 ± 0.17 | 0.116 ± 0.02 | -0.057 ± 0.045 | -0.0705 ± 0.036 | -0.097 ± 0.18 |
| LPS:CCL2/MCP-1 | -0.0015 ± 0.044 | -0.0045 ± 0.026 | 0.0205 ± 0.0078 | -0.004 ± 0.018 | -0.0115 ± 0.018 | -0.0135 ± 0.036 |
| LPS:CD40 | -0.0035 ± 0.04 | -0.005 ± 0.0071 | -0.0245 ± 0.0064 | -0.031 ± 0.0057 | -0.0375 ± 0.032 | -0.0555 ± 0.049 |
| LPS:CD62E/E-Selectin | 0.002 ± 0.023 | -0.008 ± 0.0057 | 0.0085 ± 0.022 | -0.0495 ± 0.013 | -0.0295 ± 0.022 | -0.044 ± 0.024 |
| LPS:CD69 | 0.0545 ± 0.076 | 0.0595 ± 0.047 | 0.0515 ± 0.064 | 0.014 ± 0.0099 | -0.006 ± 0.045 | -0.0125 ± 0.028 |
| LPS:CD106/VCAM-1 | -0.0235 ± 0.037 | -0.0175 ± 0.025 | -0.017 ± 0.048 | -0.008 ± 0.0057 | -0.011 ± 0.023 | -0.0275 ± 0.018 |
| LPS:CD141/Thrombomodulin | -0.014 ± 0.0014 | -0.0135 ± 0.028 | 0.006 ± 0.014 | -0.008 ± 0.027 | -0.032 ± 0.0042 | 0.028 ± 0.034 |

| Test System | level (log10) (Octafluoroadipic acid; 6700 nM) | level (log10) (Octafluoroadipic acid; 20000 nM) | level (log10) (Octafluoroadipic acid; 60000 nM) | level (log10) ([1]; 6700 nM) | level (log10) ([1]; 20000 nM) | level (log10) ([1]; 60000 nM) |
| --- | --- | --- | --- | --- | --- | --- |
| LPS:CD142/Tissue Factor | -0.0105 ± 0.022 | 0.02 ± 0.034 | 0.0215 ± 0.0078 | 0.011 ± 0.1 | 0.0075 ± 0.033 | -0.0095 ± 0.054 |
| LPS:CXCL8/IL-8 | 0.0015 ± 0.032 | -0.0035 ± 0.054 | 0.0415 ± 0.1 | -0.0075 ± 0.011 | -0.0305 ± 0.0064 | -0.0125 ± 0.021 |
| LPS:IL-1alpha | -0.003 ± 0.0028 | 0.017 ± 0.045 | 0.029 ± 0.047 | -0.0355 ± 0.049 | -0.064 ± 0.016 | -0.004 ± 0.017 |
| LPS:M-CSF | 0.002 ± 0.0099 | 0.0175 ± 0.023 | 0.0005 ± 0.00071 | -0.0285 ± 0.019 | -0.025 ± 0.017 | -0.013 ± 0.048 |
| LPS:SRB | 0.0015 ± 0.0064 | 0.004 ± 0.0085 | -0.0055 ± 0.0064 | 0.0005 ± 0.0092 | -0.003 ± 0.0014 | -0.0035 ± 0.023 |
| LPS:sPGE2 | -0.002 ± 0.044 | -0.023 ± 0.0028 | -0.014 ± 0.017 | -0.0255 ± 0.012 | 0.022 ± 0.0057 | -0.0015 ± 0.016 |
| LPS:sTNF-alpha | -0.0035 ± 0.0035 | 0.0155 ± 0.005 | 0.0125 ± 0.018 | -0.123 ± 0.074 | -0.145 ± 0.041 | -0.146 ± 0.018 |
| SAg:CCL2/MCP-1 | -0.014 ± 0.02 | -0.0135 ± 0.0035 | 0.0015 ± 0.018 | -0.0075 ± 0.00071 | -0.015 ± 0.0071 | -0.0085 ± 0.00071 |
| SAg:CD38 | -0.0415 ± 0.023 | -0.026 ± 0.017 | -0.0265 ± 0.0021 | -0.0105 ± 0.011 | -0.003 ± 0.02 | -0.013 ± 0.0028 |
| SAg:CD40 | -0.0135 ± 0.015 | -0.013 ± 0.023 | -0.025 ± 0.016 | -0.024 ± 0.05 | -0.0115 ± 0.064 | -0.0525 ± 0.043 |
| SAg:CD62E/E-Selectin | -0.0095 ± 0.077 | 0.0125 ± 0.053 | 0.0285 ± 0.029 | 0.0005 ± 0.00071 | -0.026 ± 0.0028 | -0.016 ± 0.0042 |
| SAg:CD69 | 0.0345 ± 0.073 | 0.0345 ± 0.056 | 0.0315 ± 0.054 | -0.022 ± 0.031 | -0.002 ± 0.0071 | -0.0145 ± 0.015 |
| SAg:CXCL8/IL-8 | 0.014 ± 0.018 | 0.01 ± 0.013 | 0.018 ± 0.031 | -0.0205 ± 0.04 | -0.0245 ± 0.019 | 0.0095 ± 0.035 |
| SAg:CXCL9/MIG | -0.0075 ± 0.016 | 0.005 ± 0.0028 | 0.011 ± 0.0057 | -0.0055 ± 0.0021 | 0.0035 ± 0.0064 | 0.02 ± 0.0085 |
| SAg:PBMC Cytotoxicity | 0.0085 ± 0.0064 | -0.0165 ± 0.042 | 0.0155 ± 0.00071 | -0.0045 ± 0.03 | 0.036 ± 0.062 | 0.0305 ± 0.033 |
| SAg:Proliferation | -0.021 ± 0.016 | -0.0095 ± 0.0092 | -0.0065 ± 0.059 | -0.0035 ± 0.033 | 0 ± 0.025 | -0.0055 ± 0.039 |
| SAg:SRB | -0.01 ± 0.016 | -0.008 ± 0.014 | -0.012 ± 0.0014 | 0.009 ± 0.0085 | 0.0045 ± 0.005 | 0.0025 ± 0.021 |
